Results reported in patent EP4818191A1, “PEPTIDE AND CONJUGATE CONTAINING SAID PEPTIDE” (PeptiDream Inc., priority 2023, dated 2025).

Target: T1, human CA9 (Homo sapiens, UniProt Q16790)
T1 construct: purchased SinoBiological
Experiment: Intermolecular interaction against human CA9 by surface plasmon resonance (SPR)
Type: binding
Conditions: Human CA9-Fc captured on Protein A sensor chip, Single Cycle Kinetics, KD values only in Tables 7, 8 (images)
Description: The intermolecular interactions of the peptides against human CA9 protein were examined by surface plasmon resonance (SPR) for the various peptides or conjugates synthesized in Examples 1 and 2, according to the methods described below. Specific test methods are described below.
Protein A sensor chip (Cytiva) was inserted into BiacoreT200 (Cytiva) and primed with running buffer: 1× HBS-P+ (Cytiva), 1.0 % DMSO (Fujifilm Wako Pure Chemical Corporation), and 50 µM zinc acetate dihydrate (Hampton research), and equilibrated at a flow rate of 30 µL/min. 50 nM Human CA9-Fc (SinoBiological) diluted with running buffer was reacted at a flow rate of 5 µL/min for 60 seconds and captured into a flow cell.
A solution containing each peptide or conjugate synthesized in Example 1 or 2 and prepared at 1 mM in DMSO solution was diluted with running buffer to a final concentration of 100 nM. Then, the peptide or conjugate solutions at 25 nM and 5 nM were further prepared. Depending on the affinity of the peptide or conjugate, the solution was diluted with running buffer to a final concentration of 40 nM. […]
Using the above samples, the kinetics of each peptide or conjugate against human CA9 was obtained by SPR measurement. […] The binding of each peptide or conjugate to human CA9 was evaluated by performing least-squares curve fitting on the obtained sensorgram to calculate the KD value.

- activity of binding to human CA9 (CA9 binding ability): possesses CA9 binding ability
Substance: C1Ac-da-Tbg-3Py6CON-Hgl-Meda-Ahp-PeG-S-3Py6NH2-HseMe-dk-Y-MeC [SEQ ID No. 45]
